Source: ChEMBL document CHEMBL4602644, “Synthesis of PJOV56, a new quinoxalinyl-hydrazone derivative able to induce autophagy and apoptosis in colorectal cancer cells, and related compounds” (Bioorg Med Chem Lett, 2020)
The source made the active and inactive calls. The calls are words filed in the database; no cut-off is given here.

Tests used:
HCT-116 [1] = assay: Induction of autophagy in human HCT116 cells decrease in Beclin 1 level at 6 uM measured after 48 hrs by Western blot analysis; format: functional, cell-based
HCT-116 [2] = assay: Induction of DNA fragmentation in human HCT116 cells at 6 uM measured after 48 hrs by propidium iodide staining based flow cytometry relative to control; format: functional
HCT-116 [3] = assay: Induction of autophagy in human HCT116 cells assessed as formation of autophagic vacuoles at 3 to 6 uM measured after 48 hrs by monodansylcadaverine staining based confocal microscopy; format: functional, cell-based
HCT-116 [4] = assay: Cell cycle arrest in human HCT116 cells assessed as accumulation at S phase at 3 uM measured after 48 hrs by propidium iodide staining based flow cytometry (reference value: 33.29 %); format: functional
HCT-116 [5] = assay: Disruption of membrane integrity in human HCT116 cells assessed as decrease in viable cells at 3 uM measured after 48 hrs by propidium iodide staining based flow cytometry relative to control; format: functional
HCT-116 [6] = assay: Cytotoxicity against human HCT116 cells assessed as reduction in cell viability measured after 24 hrs by MTT assay; format: functional, cell-based; details: HCT-116, 24 h
MCF7 = assay: Cytotoxicity against human MCF7 cells assessed as reduction in cell viability measured after 72 hrs by MTT assay; format: functional, cell-based; details: MCF7, 72 h
HCT-116 [7] = assay: Cytotoxicity against human HCT116 cells assessed as reduction in cell viability measured after 72 hrs by MTT assay; format: functional, cell-based; details: HCT-116, 72 h
HCT-116 [8] = assay: Induction of morphological changes in human HCT116 cells assessed as increase in number of intracellular vesicles at 1.5 to 6 uM measured after 48 hrs by propidium iodide staining based flow cytometry; format: functional, cell-based
HCT-116 [9] = assay: Induction of apoptosis in human HCT116 cells assessed as early apoptotic cells at 6 uM measured after 48 hrs by annexin-V staining based flow cytometry (reference value: 0.34 %); format: functional
SF-295 = assay: Cytotoxicity against human SF295 cells assessed as reduction in cell viability measured after 72 hrs by MTT assay; format: functional, cell-based; details: SF-295, 72 h
HL-60 [10] = assay: Cytotoxicity against human HL60 cells assessed as reduction in cell viability measured after 72 hrs by MTT assay; format: functional, cell-based; details: HL-60, 72 h
HCT-116 [11] = assay: Cytotoxicity against human HCT116 cells assessed as reduction in cell viability measured after 48 hrs by MTT assay; format: functional, cell-based; details: HCT-116, 48 h
HCT-116 [12] = assay: Induction of apoptosis in human HCT116 cells assessed as early apoptotic cells at 1.5 uM measured after 48 hrs by annexinV-PE/7-AAD staining based flow cytometric analysis (reference value: 6.53 %); format: functional
HCT-116 [13] = assay: Induction of apoptosis in human HCT116 cells assessed as early apoptotic cells at 3 uM measured after 48 hrs by annexinV-PE/7-AAD staining based flow cytometric analysis (reference value: 6.53 %); format: functional
HL-60 [14] = assay: Cytotoxicity against human HL60 cells assessed as cell growth inhibition at 5 ug/ml measured after 72 hrs by MTT assay relative to control; format: functional; details: HL-60, 72 h, read-out: GI
HCT-116 [15] = assay: Cell cycle arrest in human HCT116 cells assessed as accumulation at G0/G1 phase at 1.5 uM measured after 48 hrs by propidium iodide staining based flow cytometry (reference value: 41.67 %); format: functional
HCT-116 [16] = assay: Cytotoxicity against human HCT116 cells assessed as cell growth inhibition at 5 ug/ml measured after 72 hrs by MTT assay relative to control; format: functional; details: HCT-116, 72 h, read-out: GI

C(=N\Nc1cnc2ccccc2n1)/c1ccccn1
Activity (HCT-116 [1]): Active
Activity (HCT-116 [2]): 3.89%
Activity (HCT-116 [3]): Active
Activity (HCT-116 [4]): 55.35%
Activity (HCT-116 [5]): 90.45%
IC50 (HCT-116 [6]): > 20 µM
IC50 (MCF7): 7 µM
IC50 (HCT-116 [7]): 1.83 µM
Activity (HCT-116 [8]): Active
Activity (HCT-116 [9]): 25.6%
IC50 (SF-295): 3.88 µM
IC50 (HL-60 [10]): 0.82 µM
IC50 (HCT-116 [11]): 3.04 µM
Activity (HCT-116 [12]): 5.61%
Activity (HCT-116 [13]): 5.18%
inhibition of growth at 5 µg/mL (HL-60 [14]): 94.8%
Activity (HCT-116 [15]): 35.69%
inhibition of growth at 5 µg/mL (HCT-116 [16]): 80.4%
